Where “and” joins values, the source holds several entries; their conditions need not be identical. Equal entries are not always repeated. Where two headings read alike, the source gives them in different places.
Key:
[1] = tested on: pre-established S. aureus biofilms; set-up: method as in PMID 27405275; conditions: 4× MIC; cited from earlier work
S. aureus (SA38) [2] = conditions: previously reported, cited from earlier work
E. coli (K12) [3] = tested on: E. coli (K12); set-up: method as in PMID 32947921; conditions: previously reported, cited from earlier work
P. aeruginosa (PAO1) [4] = tested on: P. aeruginosa (PAO1); set-up: method as in PMID 32947921; conditions: previously reported, cited from earlier work
S. aureus (SA38) [5] = assay: Minimum inhibitory concentration (MIC) assay against S. aureus; type: cell-based, Staphylococcus aureus; conditions: Staphylococcus aureus
E. coli (K12) [6] = assay: Minimum inhibitory concentration (MIC) assay against E. coli; type: cell-based; conditions: Escherichia coli
P. aeruginosa (PAO1) [7] = assay: Minimum inhibitory concentration (MIC) assay against P. aeruginosa; type: cell-based; conditions: Pseudomonas aeruginosa
[8] = tested on: pre-established S. aureus biofilms; assay: Disruption of pre-established S. aureus biofilms (crystal violet assay); type: cell-based, Staphylococcus aureus
Method: As bacterial biofilms are one of the major challenges in treating bacterial infection, the ability of the synthesised peptidomimetics to disrupt pre-established biofilms was investigated.
(§1) Bacterial cultures (S. aureus and E. coli) were cultured in MHB at 37 °C with shaking at 120 rpm for 24 h. The resulting bacterial culture was washed twice with MHB with centrifugation after each wash. The bacterial solution was then diluted with fresh MHB to a turbidity of OD660 = 0.1 in MHB (equivalent to 10^8 colony forming unit (CFU)/mL of bacteria), followed by diluting to 10^6 CFU/mL in MHB. A total of 200 µL of the bacterial solution was dispensed to wells in a flat-bottom 96-well plate (Costar). The biofilm was then grown in the plate at 37 °C for 24 h. After incubation, loosely bound cells were washed away with 1× phosphate-buffered saline (PBS, pH 7.4). The biofilms were then supplemented with different concentrations of peptidomimetics dissolved in DMSO and incubated at 37 °C with shaking at 120 rpm for a further 24 h. Biofilms adhered on the plate substratum were quantified, using crystal violet staining as described previously. The experiment was performed in triplicate.

[9] = tested on: pre-established E. coli biofilms; assay: Disruption of pre-established E. coli biofilms (crystal violet assay); type: cell-based, Escherichia coli
Method: as §1

[10] = tested on: S. aureus cytoplasmic membrane; assay: Cytoplasmic membrane permeability assay (diSC3-5 dye release); type: cell-based, Staphylococcus aureus; conditions: 1× and 2× MIC, read up to 15 min
Source text: This dye readily partitions into and aggregates in bacterial cell membranes, quenching its own fluorescence. However, structural damage to the bacterial cell membrane causes a loss in the membrane potential, which results in the leakage of dye from the bacterial cell membrane into the medium and an increase in fluorescence intensity. By detecting changes in fluorescence intensity, the integrity of the bacterial cytoplasmic membrane can be monitored.
Membrane potential sensitive dye diSC3–5 (3,3′-dipropylthiadicarbocyanine iodide), which penetrates inside bacterial cells depending on the membrane potential gradient of the cytoplasmic membrane, was used to determine the bacterial cytoplasmic membrane permeability following the procedure previously described with slight modification. Bacteria (S. aureus) were incubated in MHB with shaking at 37 °C for 16 h. After incubation, the bacteria were washed with 5 mM HEPES, supplemented with 20 mM glucose at pH 7.2 and diluted in the same buffer to an OD600 0.05–0.06 (equivalent to a final concentration of 10^7 CFU/mL bacteria). The diSC3–5 dye was added at 4 μM to the bacterial suspension. […] Fluorescence due to the release of dye was measured with a FLUOstar Omega (BMG Labtech) microplate reader at 5 min intervals at an excitation wavelength of 621 nm and an emission wavelength of 670 nm.

[11] = tested on: MRC-5 normal human lung fibroblasts; assay: MTT cytotoxicity assay; type: cell-based; conditions: Homo sapiens, MRC5, 72 h, 72 h drug incubation, read-out: IC50 against MRC-5 normal human lung fibroblasts
Method: The IC50 values of the tested peptidomimetics were determined from a dose-response curve. […] The therapeutic indices for each tested peptidomimetic against Gram-positive S. aureus and Gram-negative E. coli were calculated by dividing the IC50 value against human cells by the corresponding MIC value (Table 2).
The toxicity of the peptidomimetics against normal human lung fibroblasts MRC-5 cells was measured, using an MTT (3-(4,5-dimethylthiazol-2-yl)-2,5-diphenyltetrazolium bromide) (Sigma Aldrich, St. Louis, MO, USA) colorimetric assay. The cells were cultured in minimal essential medium (MEM, Invitrogen) containing 10% foetal bovine serum (FBS). The cells were maintained at 37 °C in 5% CO2 as an adherent monolayer and was passaged upon reaching confluence by standard cell culture techniques. MRC-5 cells were seeded at 5000 cells/well in 96-well plates to ensure full confluence (quiescence) and left overnight to adhere to the plate wells. The adherent cells were treated with 1–500 μM of compounds by dissolving in DMSO and serially diluting with media. TY-01 was used as the positive control. The final concentration of DMSO was 0.5% (v/v). After the 72 h drug incubation, […] stock MTT solution (5 mg/mL) was added, and the cells were incubated for another 3.5–4 h. The MTT solution containing media was carefully aspirated without displacing the purple crystals from the bottom, and […] acid-isopropanol was added to all wells and mixed slowly by shaking with an orbital shaker to dissolve the dark blue crystals. […] The determination of IC50 values was performed using GraphPad Prism 7 (GraphPad, San Diego, CA, USA). Each experiment was performed in triplicate and was repeated in three independent experiments.

[12] = tested on: S. aureus biofilm formation; assay: Inhibition of S. aureus biofilm formation (crystal violet staining); type: cell-based, Staphylococcus aureus
Method: In this assay, S. aureus was incubated in the presence of different concentrations of the tested peptidomimetics under a static condition. After overnight incubation, planktonic bacteria were removed, and the remaining biofilms were quantified, using crystal violet staining.
S. aureus was cultured in Muller Hinton broth (MHB; Oxoid) at 37 °C with shaking at 120 rpm for 24 h. The resulting bacterial culture was washed twice with MHB with centrifugation after each wash. The bacterial solution was then diluted with fresh MHB to a turbidity of OD660 = 0.1 in MHB (equivalent to 10^8 colony forming unit (CFU)/mL of bacteria), followed by diluting to 10^6 CFU/mL in MHB. A total of 100 µL of the bacterial solution was added to wells of a 96-well plate (Costar; Sigma-Aldrich, St. Louis, MO, USA) containing 100 µL serially diluted peptidomimetics. After incubation at 37 °C for 24 h, loosely bound cells were washed away with 1× phosphate-buffered saline (PBS, pH 7.4). Biofilms adhered on the plate substratum were quantified, using crystal violet staining as described previously. Untreated bacteria were used as a negative control, where the percentage of biofilm mass reflected 100% biofilm growth. The experiment was performed in triplicate.

Haemolysis assay = type: cell-based; conditions: washed human red blood cells
Method: A total of 20 mL of human blood collected in EDTA coated tubes was transferred into a 50 mL centrifuge tube and centrifuged at 500× g (700) for 5 min. The supernatant plasma was discarded and an equal volume of 1× PBS was added. The washing was repeated five times with cells mixed by inversion. The washed pallet was then resuspended in 1:10 with PBS to yield an RBC concentration of ~5 × 10^8 RBC/mL. The peptidomimetics were serially diluted with PBS, with final concentrations ranging from 8 to 500 µM. Milli-Q water and 1× PBS were used as positive and negative controls. The cells were then incubated at 37 °C for 3 h. Following incubation, the suspension was centrifuged at 1100× g for 5 min. The final optical density was measured at 540 nm. The percentage of haemolysis was calculated, using the following equation. % haemolysis=(absorbance of test sample−absorbance of diluent)/(absorbance of positive control−absorbance of diluent)×100%

[13] = S. aureus SA38, read-out: MIC S. aureus
[14] = highest concentration tested 250 μM
[15] = 4× MIC, 24 h treatment (32 μM for 17c)
[16] = in trypticase soy broth (TSB), Mueller Hinton broth (MHB) or cationic adjusted MHB, read-out: MIC S. aureus in different growth media

Row | Molecule | MIC (S. aureus (SA38) [5]; [13]) | MIC (E. coli (K12) [6]) | MIC (P. aeruginosa (PAO1) [7]) [µg/mL] | MIC (P. aeruginosa (PAO1) [7]; [14]) [µM] | disruption of pre-established S. aureus biofilms ([8]; 1× MIC, 24 h treatment) | disruption of pre-established S. aureus biofilms [8, 15] [%] | S. aureus cytoplasmic membrane disruption (increase in fluorescence intensity) [10] | IC50 [11] | MIC (S. aureus (SA38) [5]; [16]) | inhibition of S. aureus biofilm formation ([12]; 0.5× MIC (sub-MIC)) [%] | hemolysis at 3 h, 32 µM (Haemolysis assay) [%] | also measured
1 | LL-37: cathelicidin (LL-37), antimicrobial peptide in phase IIb clinical trials for the treatment of chronic leg ulcers (LLGDFFRKSKEKIGKEFKRIVQRIKDFLRNLVPRTES; Antibacterial peptide LL-37; UniProt P49913 134-170, looked up) | – | – | – | – | – | – | – | – | – | – | – | disruption of pre-established S. aureus biofilms [1]: about 40%
2 | CCCCCCCCS(=O)(=O)Nc1ccc(-c2ccccc2)cc1C(=O)C(=O)NCCC[N+](C)(C)C [Compound 16c] | – | – | – | – | – | – | – | – | – | – | – | MIC S. aureus (S. aureus (SA38) [2]; listed as 2, 16c): 16 μM and 10 μg/mL; MIC S. aureus (S. aureus (SA38) [2]; listed as 2): 16 µM; MIC S. aureus (S. aureus (SA38) [2]): 10 µg/mL; MIC E. coli (E. coli (K12) [3]; listed as 2, 16c): 32 μM and 21 μg/mL; MIC E. coli (E. coli (K12) [3]; listed as 2): 32 µM; MIC P. aeruginosa (P. aeruginosa (PAO1) [4]; listed as 2, 16c): 125 μM and 80 μg/mL; MIC P. aeruginosa (P. aeruginosa (PAO1) [4]): 125 μM and 80 μg/mL
3 | CCCCCCCCCCCCS(=O)(=O)Nc1ccccc1C(=O)C(=O)NCCCNC(=N)N.Cl [Compound 34a, 2-(2-(Dodecylsulfonamido)phenyl)-N-(3-guanidinopropyl)-2-oxoacetamide hydrochloride] | 8 µM and 4.3 µg/mL | 16 µM and 8.5 µg/mL | > 133 | > 250 | 20–36% | 42 | most active compound at 2× MIC | 27.2 µM and 14.5 µg/mL | – | – | – | disruption of pre-established E. coli biofilms ([9]; 1× and 2× MIC, 24 h treatment): unable to disrupt any pre-established E. coli biofilms; melting point: 70 to 72.8 °C
4 | CCCCCCCCS(=O)(=O)Nc1ccc(-c2ccc(-c3ccccc3)cc2)cc1C(=O)C(=O)NCCC[N+](C)(C)C.[I-] [Compound 16d, N,N,N-Trimethyl-3-(2-(4-(octylsulfonamido)-[1,1′:4′,1″-terphenyl]-3-yl)-2-oxoacetamido)propan-1-aminium iodide] | 4 µM and 2.9 µg/mL | > 250 µM and > 180 µg/mL | > 180 | > 250 | no antibiofilm activity | – | least active compound | 53.7 µM and 38.6 µg/mL | 4 µM and 2.9 µg/mL | 35 | 11 | –
5 | CCCCCCCCCCCCS(=O)(=O)Nc1ccc(-c2ccccc2)cc1C(=O)C(=O)NCCC[N+](C)(C)C.[I-] [Compound 17c, 3-(2-(4-(Dodecylsulfonamido)-[1,1′-biphenyl]-3-yl)-2-oxoacetamido)-N,N,N-trimethylpropan-1-aminium iodide] | 8 µM and 5.6 µg/mL | 32 µM | > 175 | > 250 | 20–36% | 44 | – | 57.5 µM and 40.2 µg/mL | 8 µM and 5.6 µg/mL | 56 | 16 | disruption of pre-established E. coli biofilms ([9]; 2× MIC, 24 h treatment (64 μM for 17c)): 28%; inhibition of S. aureus biofilm formation ([12]; 2× MIC (16 μM for 17c)): 70%; inhibition of S. aureus biofilm formation ([12]; 4× MIC): 65%

— publication PMC8303886, “Polyphenylglyoxamide-Based Amphiphilic Small Molecular Peptidomimetics as Antibacterial Agents with Anti-Biofilm Activity” (International Journal of Molecular Sciences, 2021)
